The values below come from paper PMC4685510, “A Cell Biologist’s Field Guide to Aurora Kinase Inhibitors” (Frontiers in Oncology, 2015).

Assay in all cases: biochemical
What all share (type): biochemical

Assay [1] addresses 363 human kinases (including Aurora A/B/C) (Homo sapiens, UniProt O94804). To be noted: LOK/STK10; for remaining activity at 0.5 µM / remaining activity at 0.1 µM: read-out: % Enzyme Activity (relative to DMSO controls); for remaining activity at 0.1 µM: 100 nM.
Text: (§1) However, the Aurora A/B selectivity ratios derived from our in vitro and in vivo data can be compared to prioritize inhibitors.
The target in assay [2] is 363 human kinases (including Aurora A/B/C) (Homo sapiens, UniProt Q00534). To be noted: for % Enzyme Activity (relative to DMSO controls) / remaining activity at 0.5 µM: 500 nM; for remaining activity at 0.5 µM / remaining activity at 0.1 µM: read-out: % Enzyme Activity (relative to DMSO controls); for remaining activity at 0.1 µM: 100 nM.
Text: as §1
Assay [3] addresses 363 human kinases (including Aurora A/B/C) (Homo sapiens, UniProt P54756). The note with it: EPHA5, [ATP] 30 µM; for remaining activity at 0.5 µM / remaining activity at 0.1 µM: read-out: % Enzyme Activity (relative to DMSO controls); for remaining activity at 0.1 µM: 100 nM.
Text: as §1
The target in assay [4] is 363 human kinases (including Aurora A/B/C) (Homo sapiens, UniProt Q15746). The note with it: MLCK/MYLK; for remaining activity at 0.5 µM / remaining activity at 0.1 µM: read-out: % Enzyme Activity (relative to DMSO controls); for remaining activity at 0.1 µM: 100 nM.
Text: as §1
The target in assay [5] is 363 human kinases (including Aurora A/B/C) (Homo sapiens, UniProt P80192). The note with it: MLK1/MAP3K9; for remaining activity at 0.5 µM / remaining activity at 0.1 µM: read-out: % Enzyme Activity (relative to DMSO controls); for remaining activity at 0.1 µM: 100 nM.
Text: as §1
The target of assay [6] is T1, 363 human kinases (including Aurora A/B/C) (Homo sapiens, UniProt Q12851).
T1 sequence (Q12851 1-820): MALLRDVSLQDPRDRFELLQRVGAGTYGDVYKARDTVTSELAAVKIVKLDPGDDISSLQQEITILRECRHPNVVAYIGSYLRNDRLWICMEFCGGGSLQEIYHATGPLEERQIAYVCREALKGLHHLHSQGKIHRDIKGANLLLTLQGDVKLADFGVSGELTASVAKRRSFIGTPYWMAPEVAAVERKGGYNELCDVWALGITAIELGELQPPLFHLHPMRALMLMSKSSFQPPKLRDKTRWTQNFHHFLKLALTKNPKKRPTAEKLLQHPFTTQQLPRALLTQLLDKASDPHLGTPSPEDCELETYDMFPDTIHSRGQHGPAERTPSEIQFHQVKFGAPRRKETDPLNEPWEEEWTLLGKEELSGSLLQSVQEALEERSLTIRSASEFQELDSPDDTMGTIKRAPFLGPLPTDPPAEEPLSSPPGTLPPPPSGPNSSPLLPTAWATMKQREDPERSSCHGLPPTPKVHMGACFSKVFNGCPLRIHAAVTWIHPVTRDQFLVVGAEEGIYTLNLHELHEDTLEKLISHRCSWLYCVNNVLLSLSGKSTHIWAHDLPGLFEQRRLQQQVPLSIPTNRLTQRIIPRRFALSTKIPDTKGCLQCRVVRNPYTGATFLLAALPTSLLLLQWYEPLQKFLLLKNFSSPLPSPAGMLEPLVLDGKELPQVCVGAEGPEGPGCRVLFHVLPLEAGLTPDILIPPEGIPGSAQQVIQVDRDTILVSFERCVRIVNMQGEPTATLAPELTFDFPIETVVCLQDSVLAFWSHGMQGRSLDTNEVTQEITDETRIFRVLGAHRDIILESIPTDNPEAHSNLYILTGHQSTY
The note with it: GCK/MAP4K2; for remaining activity at 0.5 µM / remaining activity at 0.1 µM: read-out: % Enzyme Activity (relative to DMSO controls); for remaining activity at 0.1 µM: 100 nM.
Text: as §1

Assay [7] addresses 363 human kinases (including Aurora A/B/C) (Homo sapiens, UniProt Q14012). The note with it: CAMK1a, [ATP] 20 µM; for remaining activity at 0.5 µM / remaining activity at 0.1 µM: read-out: % Enzyme Activity (relative to DMSO controls); for remaining activity at 0.1 µM: 100 nM.
Text: as §1
The target of assay [8] is 363 human kinases (including Aurora A/B/C) (Homo sapiens, UniProt P78362). To be noted: SRPK2; for remaining activity at 0.5 µM / remaining activity at 0.1 µM: read-out: % Enzyme Activity (relative to DMSO controls); for remaining activity at 0.1 µM: 100 nM.
Text: as §1
Assay [9] addresses T2, 363 human kinases (including Aurora A/B/C) (Homo sapiens, UniProt Q8IVT5).
T2 sequence (Q8IVT5 1-923): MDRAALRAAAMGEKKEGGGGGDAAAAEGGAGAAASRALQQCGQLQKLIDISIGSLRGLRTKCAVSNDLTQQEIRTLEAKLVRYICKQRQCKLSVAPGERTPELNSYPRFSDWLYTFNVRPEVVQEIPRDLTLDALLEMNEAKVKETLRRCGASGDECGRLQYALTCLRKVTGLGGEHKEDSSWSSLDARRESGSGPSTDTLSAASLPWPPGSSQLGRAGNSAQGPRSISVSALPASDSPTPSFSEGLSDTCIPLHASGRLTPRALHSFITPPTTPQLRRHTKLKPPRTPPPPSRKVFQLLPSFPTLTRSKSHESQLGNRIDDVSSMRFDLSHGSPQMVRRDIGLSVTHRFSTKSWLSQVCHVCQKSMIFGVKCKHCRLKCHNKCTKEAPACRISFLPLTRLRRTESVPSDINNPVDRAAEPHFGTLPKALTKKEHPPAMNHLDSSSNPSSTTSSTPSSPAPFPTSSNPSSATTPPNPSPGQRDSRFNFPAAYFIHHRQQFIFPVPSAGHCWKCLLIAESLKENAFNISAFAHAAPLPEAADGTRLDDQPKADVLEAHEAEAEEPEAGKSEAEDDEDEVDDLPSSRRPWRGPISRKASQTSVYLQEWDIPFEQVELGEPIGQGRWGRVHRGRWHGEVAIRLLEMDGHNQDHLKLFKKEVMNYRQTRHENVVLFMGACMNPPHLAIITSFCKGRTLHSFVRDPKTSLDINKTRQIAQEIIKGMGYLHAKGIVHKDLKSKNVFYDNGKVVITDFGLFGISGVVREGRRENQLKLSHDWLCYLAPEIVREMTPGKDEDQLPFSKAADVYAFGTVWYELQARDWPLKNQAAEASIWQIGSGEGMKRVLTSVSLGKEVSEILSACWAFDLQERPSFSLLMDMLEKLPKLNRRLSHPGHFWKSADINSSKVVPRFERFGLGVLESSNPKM
The note with it: KSR1; for remaining activity at 0.5 µM / remaining activity at 0.1 µM: read-out: % Enzyme Activity (relative to DMSO controls); for remaining activity at 0.1 µM: 100 nM.
Text: as §1

The target of assay [10] is 363 human kinases (including Aurora A/B/C) (Homo sapiens, UniProt O94921). The note with it: CDK14/cyclin Y (PFTK1), [ATP] 10 µM; for remaining activity at 0.5 µM / remaining activity at 0.1 µM: read-out: % Enzyme Activity (relative to DMSO controls); for remaining activity at 0.1 µM: 100 nM.
Text: as §1
Assay [11] concerns the target 363 human kinases (including Aurora A/B/C) (Homo sapiens, UniProt Q02763). The note with it: TIE2/TEK; for remaining activity at 0.5 µM / remaining activity at 0.1 µM: read-out: % Enzyme Activity (relative to DMSO controls); for remaining activity at 0.1 µM: 100 nM.
Text: as §1
Assay [12] concerns the target 363 human kinases (including Aurora A/B/C) (Homo sapiens, UniProt P10721). The note with it: c-Kit, [ATP] 100 µM; for remaining activity at 0.5 µM / remaining activity at 0.1 µM: read-out: % Enzyme Activity (relative to DMSO controls); for remaining activity at 0.1 µM: 100 nM.
Text: as §1

Where two headings read alike, the source gives them in different places.

363 human kinases (including Aurora A/B/C) (Homo sapiens, UniProt O94921), sequence (O94921 whole entry): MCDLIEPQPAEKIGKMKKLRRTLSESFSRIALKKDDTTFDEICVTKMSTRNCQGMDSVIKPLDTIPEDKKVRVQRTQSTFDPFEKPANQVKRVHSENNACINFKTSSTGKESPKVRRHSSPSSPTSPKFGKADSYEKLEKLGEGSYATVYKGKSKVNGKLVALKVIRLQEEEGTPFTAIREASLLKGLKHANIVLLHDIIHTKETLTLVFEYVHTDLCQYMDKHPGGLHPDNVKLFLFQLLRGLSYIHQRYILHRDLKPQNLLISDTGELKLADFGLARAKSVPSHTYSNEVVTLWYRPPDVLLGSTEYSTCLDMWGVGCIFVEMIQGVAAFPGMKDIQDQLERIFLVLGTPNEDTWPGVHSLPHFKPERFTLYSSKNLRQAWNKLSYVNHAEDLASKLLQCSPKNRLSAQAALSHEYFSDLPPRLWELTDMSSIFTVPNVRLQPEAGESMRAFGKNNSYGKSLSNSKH
363 human kinases (including Aurora A/B/C) (Homo sapiens, UniProt P78362), sequence (P78362 whole entry): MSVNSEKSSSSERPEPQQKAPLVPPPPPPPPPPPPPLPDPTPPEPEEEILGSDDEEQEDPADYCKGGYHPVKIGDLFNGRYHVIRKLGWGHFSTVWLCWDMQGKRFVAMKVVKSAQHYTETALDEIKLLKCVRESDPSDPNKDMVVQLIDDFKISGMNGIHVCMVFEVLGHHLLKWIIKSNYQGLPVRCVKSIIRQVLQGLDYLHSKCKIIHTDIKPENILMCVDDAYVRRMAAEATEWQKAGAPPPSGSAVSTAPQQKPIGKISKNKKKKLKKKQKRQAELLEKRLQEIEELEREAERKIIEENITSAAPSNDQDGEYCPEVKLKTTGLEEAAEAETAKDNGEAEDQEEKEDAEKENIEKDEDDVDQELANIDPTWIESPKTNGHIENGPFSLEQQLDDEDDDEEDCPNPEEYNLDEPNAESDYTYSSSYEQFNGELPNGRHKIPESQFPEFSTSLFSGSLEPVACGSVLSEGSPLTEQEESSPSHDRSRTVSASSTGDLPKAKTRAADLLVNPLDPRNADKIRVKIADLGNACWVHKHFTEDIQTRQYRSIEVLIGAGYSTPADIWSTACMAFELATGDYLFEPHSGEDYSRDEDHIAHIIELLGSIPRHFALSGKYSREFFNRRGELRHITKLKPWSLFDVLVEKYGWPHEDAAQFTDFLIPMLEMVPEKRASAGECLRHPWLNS
363 human kinases (including Aurora A/B/C) (Homo sapiens, UniProt P80192), sequence (P80192 whole entry): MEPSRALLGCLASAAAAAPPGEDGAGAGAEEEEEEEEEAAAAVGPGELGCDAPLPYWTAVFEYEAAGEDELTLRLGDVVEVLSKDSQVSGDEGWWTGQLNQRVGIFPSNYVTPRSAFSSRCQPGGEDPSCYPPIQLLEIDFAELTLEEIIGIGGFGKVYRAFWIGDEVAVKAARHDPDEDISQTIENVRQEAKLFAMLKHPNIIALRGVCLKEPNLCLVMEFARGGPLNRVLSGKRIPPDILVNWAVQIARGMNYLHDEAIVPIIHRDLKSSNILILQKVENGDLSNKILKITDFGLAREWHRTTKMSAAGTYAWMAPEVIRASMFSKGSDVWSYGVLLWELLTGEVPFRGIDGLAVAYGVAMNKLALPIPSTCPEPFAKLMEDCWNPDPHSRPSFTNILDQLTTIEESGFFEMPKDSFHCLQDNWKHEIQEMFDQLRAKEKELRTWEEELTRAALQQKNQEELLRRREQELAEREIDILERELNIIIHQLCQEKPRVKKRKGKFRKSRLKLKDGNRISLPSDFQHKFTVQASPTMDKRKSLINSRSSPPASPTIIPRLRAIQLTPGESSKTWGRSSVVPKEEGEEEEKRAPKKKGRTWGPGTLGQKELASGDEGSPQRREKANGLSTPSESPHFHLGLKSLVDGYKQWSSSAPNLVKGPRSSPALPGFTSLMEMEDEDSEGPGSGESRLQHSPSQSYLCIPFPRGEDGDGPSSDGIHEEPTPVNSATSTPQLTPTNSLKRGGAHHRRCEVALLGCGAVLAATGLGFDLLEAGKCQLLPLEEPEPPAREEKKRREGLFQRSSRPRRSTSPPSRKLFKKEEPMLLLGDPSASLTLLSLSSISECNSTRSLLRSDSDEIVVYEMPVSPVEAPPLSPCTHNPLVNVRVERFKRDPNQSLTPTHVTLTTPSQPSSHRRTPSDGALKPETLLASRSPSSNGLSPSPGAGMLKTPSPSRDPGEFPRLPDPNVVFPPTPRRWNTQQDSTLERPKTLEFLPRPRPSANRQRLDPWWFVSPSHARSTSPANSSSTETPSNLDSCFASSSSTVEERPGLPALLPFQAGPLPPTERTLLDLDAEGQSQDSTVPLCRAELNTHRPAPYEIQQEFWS
363 human kinases (including Aurora A/B/C) (Homo sapiens, UniProt O94804), sequence (O94804 whole entry): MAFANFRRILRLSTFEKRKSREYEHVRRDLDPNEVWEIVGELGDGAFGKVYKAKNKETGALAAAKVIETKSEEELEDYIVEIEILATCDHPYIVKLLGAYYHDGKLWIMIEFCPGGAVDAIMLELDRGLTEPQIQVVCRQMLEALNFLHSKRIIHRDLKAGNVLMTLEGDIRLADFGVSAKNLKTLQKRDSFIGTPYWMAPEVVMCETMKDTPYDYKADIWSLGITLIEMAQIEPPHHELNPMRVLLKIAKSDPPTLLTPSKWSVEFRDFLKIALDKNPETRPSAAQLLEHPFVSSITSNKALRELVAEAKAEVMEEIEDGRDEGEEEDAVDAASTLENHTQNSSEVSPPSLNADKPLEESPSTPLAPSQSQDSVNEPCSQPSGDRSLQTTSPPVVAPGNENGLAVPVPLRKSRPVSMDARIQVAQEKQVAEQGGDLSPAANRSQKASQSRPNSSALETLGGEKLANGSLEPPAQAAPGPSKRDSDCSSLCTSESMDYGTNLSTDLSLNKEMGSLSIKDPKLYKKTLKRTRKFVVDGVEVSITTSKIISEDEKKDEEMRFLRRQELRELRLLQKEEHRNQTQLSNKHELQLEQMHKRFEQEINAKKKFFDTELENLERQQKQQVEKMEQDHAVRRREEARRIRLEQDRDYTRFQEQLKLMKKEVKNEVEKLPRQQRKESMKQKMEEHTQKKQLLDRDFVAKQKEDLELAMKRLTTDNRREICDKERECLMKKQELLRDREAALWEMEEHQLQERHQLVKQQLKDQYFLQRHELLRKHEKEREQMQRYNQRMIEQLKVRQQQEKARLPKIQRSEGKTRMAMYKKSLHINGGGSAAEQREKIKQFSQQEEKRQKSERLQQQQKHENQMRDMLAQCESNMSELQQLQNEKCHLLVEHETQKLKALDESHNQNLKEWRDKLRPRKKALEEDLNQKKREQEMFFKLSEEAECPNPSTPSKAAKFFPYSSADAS
363 human kinases (including Aurora A/B/C) (Homo sapiens, UniProt P10721), sequence (P10721 26-976): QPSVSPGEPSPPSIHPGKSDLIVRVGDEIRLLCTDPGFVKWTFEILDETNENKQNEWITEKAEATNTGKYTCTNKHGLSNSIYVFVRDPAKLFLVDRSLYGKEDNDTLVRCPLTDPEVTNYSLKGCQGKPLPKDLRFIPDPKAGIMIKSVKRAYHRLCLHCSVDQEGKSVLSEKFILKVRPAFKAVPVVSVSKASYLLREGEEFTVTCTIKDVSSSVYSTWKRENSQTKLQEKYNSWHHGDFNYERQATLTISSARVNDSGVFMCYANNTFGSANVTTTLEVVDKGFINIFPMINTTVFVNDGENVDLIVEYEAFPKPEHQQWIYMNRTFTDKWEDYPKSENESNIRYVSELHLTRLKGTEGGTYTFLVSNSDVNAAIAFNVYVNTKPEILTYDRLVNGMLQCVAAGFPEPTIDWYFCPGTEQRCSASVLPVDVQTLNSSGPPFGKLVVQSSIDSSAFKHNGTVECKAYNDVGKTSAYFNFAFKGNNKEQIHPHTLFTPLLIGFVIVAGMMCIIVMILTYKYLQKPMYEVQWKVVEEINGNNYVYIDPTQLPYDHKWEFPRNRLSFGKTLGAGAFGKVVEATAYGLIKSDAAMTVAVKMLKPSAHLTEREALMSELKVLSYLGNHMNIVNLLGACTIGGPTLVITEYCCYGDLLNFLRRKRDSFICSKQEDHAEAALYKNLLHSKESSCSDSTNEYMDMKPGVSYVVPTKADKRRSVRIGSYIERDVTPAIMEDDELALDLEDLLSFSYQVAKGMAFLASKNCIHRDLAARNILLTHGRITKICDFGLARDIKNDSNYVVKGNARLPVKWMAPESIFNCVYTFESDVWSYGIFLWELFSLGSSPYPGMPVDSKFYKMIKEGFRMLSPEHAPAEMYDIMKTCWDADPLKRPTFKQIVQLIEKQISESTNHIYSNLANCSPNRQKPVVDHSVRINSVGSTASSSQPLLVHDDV
363 human kinases (including Aurora A/B/C) (Homo sapiens, UniProt Q00534), sequence (Q00534 whole entry): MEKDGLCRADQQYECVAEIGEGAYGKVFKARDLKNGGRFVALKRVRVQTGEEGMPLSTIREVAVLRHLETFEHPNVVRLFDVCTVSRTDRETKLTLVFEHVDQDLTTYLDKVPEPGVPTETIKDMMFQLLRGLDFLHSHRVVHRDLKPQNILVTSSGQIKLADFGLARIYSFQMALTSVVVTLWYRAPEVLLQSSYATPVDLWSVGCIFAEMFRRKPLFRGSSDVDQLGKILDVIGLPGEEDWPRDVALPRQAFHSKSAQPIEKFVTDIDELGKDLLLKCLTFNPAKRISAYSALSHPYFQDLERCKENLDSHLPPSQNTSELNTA
363 human kinases (including Aurora A/B/C) (Homo sapiens, UniProt Q14012), sequence (Q14012 whole entry): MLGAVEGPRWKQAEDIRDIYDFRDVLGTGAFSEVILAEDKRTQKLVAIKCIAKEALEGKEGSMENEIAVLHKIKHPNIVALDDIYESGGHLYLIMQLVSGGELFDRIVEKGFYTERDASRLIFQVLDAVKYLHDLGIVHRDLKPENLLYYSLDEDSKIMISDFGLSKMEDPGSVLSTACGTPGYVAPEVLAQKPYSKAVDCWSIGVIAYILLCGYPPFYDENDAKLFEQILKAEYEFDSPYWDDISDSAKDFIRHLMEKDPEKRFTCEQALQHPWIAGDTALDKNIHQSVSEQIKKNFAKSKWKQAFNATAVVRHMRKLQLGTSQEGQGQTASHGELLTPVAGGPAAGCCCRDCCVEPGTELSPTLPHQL

For `O=C(c1cccc(Cl)c1F)N1CCN(Cc2cccc(Nc3nccs3)n2)CC1` [MK-8745], the “% Enzyme Activity (relative to DMSO controls)” value in assay [1] (500 nM) is 49.80%; in [2] (CDK6/cyclin D1, [ATP] 20 µM), 94.81%; in assay [2] (CDK6/cyclin D3, [ATP] 30 µM) it was 93.71%; in assay [3] (500 nM) it was 84.08%; in assay [4] (500 nM), 89.65%; in assay [5] (500 nM) it was 101.78%. Besides, the “% Enzyme Activity (relative to DMSO controls)” value is 91.89% in assay [6] (500 nM); 94.06% in assay [7] (500 nM); 98.38% in assay [8] (500 nM); 92.75% in assay [9] (500 nM); 102.17% in assay [10] (500 nM); 96.47% in [11] (500 nM). Moreover, in assay [12] (500 nM), the “% Enzyme Activity (relative to DMSO controls)” value is recorded as 86.62%. Besides, the remaining activity at 0.5 µM in assay [1] (500 nM) was 52.1%; in assay [2] (CDK6/cyclin D1, [ATP] 20 µM), 96.4%; in assay [2] (CDK6/cyclin D3, [ATP] 30 µM) it was 95.7%; in assay [3] (500 nM), 84.2%; in [4] (500 nM), 90.7%; in assay [5] (500 nM) it was 102%. The remaining activity at 0.5 µM in [6] (500 nM) was 93.7%; in assay [7] (500 nM), 95.5%; in [8] (500 nM), 99.7%; in [9] (500 nM), 93.4%; in [10] (500 nM), 104%; in assay [11] (500 nM), 98.2%. Further, in assay [12] (500 nM), the remaining activity at 0.5 µM worked out at 88.2%.
In the case of `CCn1cc(-c2ccnc3[nH]c(-c4cccc(CN(C)C)c4)cc23)c(-c2ccc(NC(=O)N(C)C)cc2)n1` [GSK1070916], the remaining activity at 0.1 µM in assay [1] came out at 73.2%; in assay [2] (CDK6/cyclin D1, [ATP] 20 µM), 98.8%; in assay [2] (CDK6/cyclin D3, [ATP] 30 µM), 102%; in assay [3], 101%; in assay [4], 96.9%; in assay [5], 97.6%. Moreover, the remaining activity at 0.1 µM turned out to be 91.1% in assay [6]; 98.6% in assay [7]; 96.5% in assay [8]; 94.2% in assay [9]; 108% in assay [10]; 39.1% in assay [11]. In addition, in assay [12], the remaining activity at 0.1 µM came to 76.5%.
As for `O=C(O)[C@]1(Cc2cccc(Nc3nccs3)n2)CC[C@@H](Oc2cccc(Cl)c2F)CC1` [MK-5108], the remaining activity at 0.1 µM amounted to 34% in [1]; 90.3% in assay [2] (CDK6/cyclin D1, [ATP] 20 µM); 89.7% in [2] (CDK6/cyclin D3, [ATP] 30 µM); 48.6% in [3]; 89.1% in assay [4]; 88.5% in assay [5]. Moreover, the remaining activity at 0.1 µM in [6] stood at 97.2%; in [7] it was 102%; in [8], 95.4%; in assay [9], 98.6%; in assay [10], 102%; in assay [11], 37.9%. Further, the remaining activity at 0.1 µM in [12] was determined as 107%. The remaining activity at 0.5 µM in assay [1] (500 nM) was 10.3%; in assay [2] (CDK6/cyclin D1, [ATP] 20 µM) it was 96.2%; in [2] (CDK6/cyclin D3, [ATP] 30 µM), 95.1%; in [3] (500 nM), 24.4%; in assay [4] (500 nM) it was 73.5%; in assay [5] (500 nM) it was 64.3%. The remaining activity at 0.5 µM in assay [6] (500 nM) is 69.4%; in assay [7] (500 nM) it was 97.1%; in assay [8] (500 nM), 94.3%; in assay [9] (500 nM), 98%; in [10] (500 nM), 103%; in [11] (500 nM), 9.27%. The remaining activity at 0.5 µM in assay [12] (500 nM) came out at 85.6%.
